Patent US4347361A, “4,5α-Epoxy-3-hydroxy or methoxy-7-(1-hydroxy-alkyl or 1-oxoalkyl)morphinan-6-one compounds” (SISA, Incorporated, priority 1980, dated 1982)

Columns and labels:
[1] = system: male CD-1 mice (acetic acid writhing); assay: acetic acid mouse writhing test (analgesic effects); type: in vivo, mice (male CD-1); conditions: subcutaneous; for ED50: Ia at dose: at 10 (mg/kg), Ia not defined; for ED50: sc, 0.25 h, acetic acid i.p. 15 min post drug, read-out: ED50 (dose required to reduce the number of writhes by 50%); for % reduction of number of writhes (ED50 column, X%(Y)): at 10 mg/kg
Protocol: (A) Analgesic effects upon mice (acetic acid writhing test).
The analgesic effects of test compounds were determined in mice by use of the acetic acid writhing test described by B. A. Whittle, Brit. J. Pharmacol., 22:246 (1964). In this test at least three groups of five male CD-1 mice each were given subcutaneous doses of the test drug dissolved in either distilled water or distilled water acidified with HCl depending on the solubility of the compound. Fifteen (15) minutes post drug, 0.4 milliliter of a 0.75% or 1.0% or 0.6 milliliter of a 1.0% V/V acetic acid in distilled water solution was administered intraperitoneally. The number of writhes in a 20 minute interval beginning 5 minutes after the acetic acid injection were determined and compared with the number of writhes in control groups which had received only acetic acid.
Percent inhibition of writhing was calculated as: [formula]
The ED50 dose, i.e., the dose required to reduce the number of writhes by 50%, was determined graphically from a plot of % inhibition as a probit versus log dose. Confidence limits of 95% were calculated on the basis of those results falling in the range 16-84% inhibition. See Litchfield, J. T. and Wilcoxon, F., J. Pharmacol. Exp. Ther., 96:99, (1949).

[2] = system: male albino Wistar rats (morphine effect, tail flick); assay: narcotic antagonist activity, modified rat tail flick test (inhibition of morphine effect); type: in vivo; conditions: intraperitoneal; for AD50: X%(Y) / AD50: Ia at dose: vs ED80 morphine; for ED50: ip, 10 min before ED80 dose of morphine s.c., read-out: AD50 (dose required to inhibit the morphine effect by 50%); for AD50: Ia at dose: at 10 (mg/kg), Ia not defined
Protocol: (B) Narcotic antagonist activity in rats (modified rat tail flick test).
The narcotic antagonist effects of test compounds were determined by a modification of the rat tail flick procedure of Harris and Pierson, J. Pharmacol. Exp. Ther. 143:141 (1964).
Male albino Wistar rats (100-120 g.) were used for this study. A rat's tail is so placed so as to cover a photocell. Heat is applied by a lamp in a reflector with a timer being connected to the lamp and photocell so that the timer goes on when the light is turned on and is turned off when the photocell is uncovered. A rheostat, incorporated into a heating lamp is used to adjust the intensity of the light falling on the tail of the rat such that the rat's control reaction time is from 1.2 to 5.8 seconds. Animals with a control reaction time outside this range are rejected. The rheostat adjustment is made only if a significant proportion (more than 1 out of every 10 rats) of the reaction times are outside the range of 1.2 to 5.8 seconds. Groups of five rats were used each time, and two control times were determined at least 30 minutes apart.
The test drug was given intraperitoneally and this was followed ten minutes later by an ED80 dose of morphine subcutaneously. The animals were retested at 20 minutes after the morphine injection. Control animals were given morphine only. […] The data were calculated as follows: [formula]
The data were plotted on log-probit paper and AD50 values, i.e., the dose required to inhibit the morphine effect by 50% within 95% confidence limits, were determined by the method of Litchfield and Wilcoxon.

Compound	ED50 [1] [mg/kg]	ED50 [2] [mg/kg]	other results
COc1ccc2c3c1O[C@H]1C(=O)C(C(=O)C(C)(C)C)C[C@H]4[C@@H](C2)N(CC2CC2)CC[C@]314 (stereo partly drawn) [TR-5571]			ED50: Ia at dose [1]: Ia; AD50: X%(Y) ([2]; at 10 mg/kg): 13%
CCCC(C)(O)C1C[C@H]2[C@H]3Cc4ccc(O)c5c4[C@@]2(CCN3CC2CC2)[C@@H](O5)C1=O (stereo partly drawn) [TR-5543, 17-cyclopropylmethyl-4,5α-epoxy-3-hydroxy-7-(1-hydroxy-1-methylbutyl)morphinan-6-one]	1.8	2.8	
COc1ccc2c3c1O[C@H]1C(=O)C(C(=O)CCc4ccccc4)C[C@H]4[C@@H](C2)N(C)CC[C@]314 (stereo partly drawn) [MLS-5688H]	0.62		
COc1ccc2c3c1O[C@H]1C(=O)C(C(C)=O)C[C@H]4[C@@H](C2)N(CC2CC2)CC[C@]314 (stereo partly drawn) [TR-5463]			% reduction of number of writhes (ED50 column, X%(Y)) [1]: 9%; AD50: Ia at dose [2]: Ia
CCCCC(=O)C1C[C@H]2[C@H]3Cc4ccc(OC)c5c4[C@@]2(CCN3CC2CC2)[C@@H](O5)C1=O (stereo partly drawn) [TR-5519]	> 10		AD50: Ia at dose [2]: Ia
COc1ccc2c3c1O[C@H]1C(=O)C(C(=O)CCCc4ccccc4)C[C@H]4[C@@H](C2)N(C)CC[C@]314 (stereo partly drawn) [MLS-5683, 7-(4-Phenylbutyroyl)Dihydrocodeinone]	0.41		
COc1ccc2c3c1O[C@H]1C(=O)C(C(=O)c4ccccc4)C[C@H]4[C@@H](C2)N(CC2CC2)CC[C@]314 (stereo partly drawn) [TR-5501]	11.3	8	
COc1ccc2c3c1O[C@H]1C(=O)C(C(C)(C)O)C[C@H]4[C@@H](C2)N(CC2CC2)CC[C@]314 (stereo partly drawn) [TR-5479]			ED50: Ia at dose [1]: Ia; AD50: X%(Y) ([2]; at 10 mg/kg): 41%
CCC(=O)C1C[C@H]2[C@H]3Cc4ccc(O)c5c4[C@@]2(CCN3CC2CC2)[C@@H](O5)C1=O (stereo partly drawn) [TR-5573]		0.51	ED50: Ia at dose [1]: Ia
CCCC(C)(O)C1C[C@H]2[C@H]3Cc4ccc(OC)c5c4[C@@]2(CCN3CC2CC2)[C@@H](O5)C1=O (stereo partly drawn) [TR-5499]	0.42		AD50: X%(Y) ([2]; at 7 mg/kg): 12%
COc1ccc2c3c1O[C@H]1C(=O)C(C(=O)Cc4ccccc4)C[C@H]4[C@@H](C2)N(CC2CC2)CC[C@]314 (stereo partly drawn) [TR-5577]			% reduction of number of writhes (ED50 column, X%(Y)) [1]: 21%; AD50: Ia at dose [2]: Ia
CCCCCC(=O)C1C[C@H]2[C@H]3Cc4ccc(O)c5c4[C@@]2(CCN3C)[C@@H](O5)C1=O (stereo partly drawn) [MLS-5689]	0.76		
CC(C)C(C)(O)C1C[C@H]2[C@H]3Cc4ccc(O)c5c4[C@@]2(CCN3CC2CC2)[C@@H](O5)C1=O (stereo partly drawn) [TR-5572]	7.8	2.2	
CCC(=O)C1C[C@H]2[C@H]3Cc4ccc(OC)c5c4[C@@]2(CCN3CC2CC2)[C@@H](O5)C1=O (stereo partly drawn) [TR-5570]		6.5	% reduction of number of writhes (ED50 column, X%(Y)) [1]: 11%
CCCC(=O)C1C[C@H]2[C@H]3Cc4ccc(O)c5c4[C@@]2(CCN3CC2CC2)[C@@H](O5)C1=O (stereo partly drawn) [TR-5476, 17-cyclopropylmethyl-4,5α-epoxy-3-hydroxy-7-butanoylmorphinan-6-one]	4.65	2.55	
CC(C)(C)CC(=O)C1C[C@H]2[C@H]3Cc4ccc(O)c5c4[C@@]2(CCN3CC2CC2)[C@@H](O5)C1=O (stereo partly drawn) [TR-5574]		> 10	ED50: Ia at dose [1]: Ia
CN1CC[C@]23c4c5ccc(O)c4O[C@H]2C(=O)C(C(=O)CCc2ccccc2)C[C@H]3[C@H]1C5 (stereo partly drawn) [MLS-5690]	0.105		
O=C(c1ccccc1)C1C[C@H]2[C@H]3Cc4ccc(O)c5c4[C@@]2(CCN3CC2CC2)[C@@H](O5)C1=O (stereo partly drawn) [TR-5506]	4.35	0.24	
CCCCC(=O)C1C[C@H]2[C@H]3Cc4ccc(O)c5c4[C@@]2(CCN3CC2CC2)[C@@H](O5)C1=O (stereo partly drawn) [TR-5520]	1.59		AD50: X%(Y) ([2]; at 10 mg/kg): 77%

Compound	ED50 [1] [mg/kg]	ED50 [2] [mg/kg]	other results
CC(C)C(=O)C1C[C@H]2[C@H]3Cc4ccc(O)c5c4[C@@]2(CCN3CC2CC2)[C@@H](O5)C1=O (stereo partly drawn) [TR-5511]	> 10	0.81	
CCCC(=O)C1C[C@H]2[C@H]3Cc4ccc(OC)c5c4[C@@]2(CCN3CC2CC2)[C@@H](O5)C1=O (stereo partly drawn) [TR-5464]	2.81	8.1	
COc1ccc2c3c1O[C@H]1C(=O)C(C(C)(C)O)C[C@H]4[C@@H](C2)N(C)CC[C@]314 (stereo partly drawn) [TR-5492]	4.5		
CCCCCCC(=O)C1C[C@H]2[C@H]3Cc4ccc(OC)c5c4[C@@]2(CCN3CC2CC2)[C@@H](O5)C1=O (stereo partly drawn) [TR-5539]	> 10	> 10	
CCCCCC(=O)C1C[C@H]2[C@H]3Cc4ccc(OC)c5c4[C@@]2(CCN3C)[C@@H](O5)C1=O (stereo partly drawn) [MLS-5682]	4		
CC(=O)C1C[C@H]2[C@H]3Cc4ccc(O)c5c4[C@@]2(CCN3CC2CC2)[C@@H](O5)C1=O (stereo partly drawn) [TR-5475]	4.05	1.3	
CN1CC[C@]23c4c5ccc(O)c4O[C@H]2C(=O)C(C(=O)CCCc2ccccc2)C[C@H]3[C@H]1C5 (stereo partly drawn) [MLS-5691, 7-(4-Phenylbutyroyl)Dihydromorphone]	0.0052		
COc1ccc2c3c1O[C@H]1C(=O)C(C(=O)C(C)C)C[C@H]4[C@@H](C2)N(CC2CC2)CC[C@]314 (stereo partly drawn) [TR-5509]	7.5	2.8	
O=C(c1ccc(F)cc1)C1C[C@H]2[C@H]3Cc4ccc(O)c5c4[C@@]2(CCN3CC2CC2)[C@@H](O5)C1=O (stereo partly drawn) [TR-5579]			% reduction of number of writhes (ED50 column, X%(Y)) [1]: 29%; AD50: X%(Y) ([2]; at 10 mg/kg): 45%
CCCCCC(C)(O)C1C[C@H]2[C@H]3Cc4ccc(O)c5c4[C@@]2(CCN3CC2CC2)[C@@H](O5)C1=O (stereo partly drawn) [TR-5538]	0.28	6.6	
CCCCCC(=O)C1C[C@H]2[C@H]3Cc4ccc(O)c5c4[C@@]2(CCN3CC2CC2)[C@@H](O5)C1=O (stereo partly drawn) [TR-5505]	0.29	22	
CCCCCC(C)(O)C1C[C@H]2[C@H]3Cc4ccc(O)c5c4[C@@]2(CCN3C)[C@@H](O5)C1=O (stereo partly drawn) [MLS-5694]	2.9		
COc1ccc2c3c1O[C@H]1C(=O)C(C(=O)c4ccc(F)cc4)C[C@H]4[C@@H](C2)N(CC2CC2)CC[C@]314 (stereo partly drawn) [TR-5575]			ED50: Ia at dose [1]: Ia; AD50: X%(Y) ([2]; at 10 mg/kg): 17%
CCCC(=O)C1C[C@H]2[C@H]3Cc4ccc(O)c5c4[C@@]2(CCN3C)[C@@H](O5)C1=O (stereo partly drawn) [MLS-5695]	5.25		
CCCC(=O)C1C[C@H]2[C@H]3Cc4ccc(OC)c5c4[C@@]2(CCN3C)[C@@H](O5)C1=O (stereo partly drawn) [MLS-5692]			ED50: Ia at dose [1]: Ia
CCCCC(C)(O)C1C[C@H]2[C@H]3Cc4ccc(O)c5c4[C@@]2(CCN3CC2CC2)[C@@H](O5)C1=O (stereo partly drawn) [TR-5551]		2.5	% reduction of number of writhes (ED50 column, X%(Y)) [1]: 40%
CCCCC(C)(O)C1C[C@H]2[C@H]3Cc4ccc(OC)c5c4[C@@]2(CCN3CC2CC2)[C@@H](O5)C1=O (stereo partly drawn) [TR-5544]			% reduction of number of writhes (ED50 column, X%(Y)) [1]: 10%; AD50: Ia at dose [2]: Ia
CCCCCC(=O)C1C[C@H]2[C@H]3Cc4ccc(OC)c5c4[C@@]2(CCN3CC2CC2)[C@@H](O5)C1=O (stereo partly drawn) [TR-5504]	5.7		AD50: Ia at dose [2]: Ia
CCCCCCC(=O)C1C[C@H]2[C@H]3Cc4ccc(O)c5c4[C@@]2(CCN3CC2CC2)[C@@H](O5)C1=O (stereo partly drawn) [TR-5540]	0.4		AD50: Ia at dose [2]: Ia
